# Data from patent US20250288570A1, “TREATMENT OF NEUROLOGICAL DISORDERS” (Praxis Precision Medicines, Inc., priority 2022, published 2025).
# “Also recorded” adds a separate entry of the source.
# Tests used:
# human Nav1.6 [1] = biological target: T1, human Nav1.6 (Homo sapiens, UniProt Q9UQD0); test: ATX-II activated late (persistent) INa block, automated patch clamp in HEK cells; assay type: cell-based; conditions: for inhibition of and preference for persistent INa (in words): hNav1.6; for Persistent INa Hill slope: hNav1.6 in HEK cells
# T1 construct: HEK-293 cell lines stably expressing human Nav1.6 (NP_055006) were used; expressed in transfected cells
# human Nav1.6 [2] = biological target: T1, human Nav1.6; test: Peak INa tonic block (TB), automated patch clamp in HEK cells; assay type: cell-based; conditions: ratio of peak INa (TB) to persistent INa IC50
# human Nav1.6 [3] = biological target: T1, human Nav1.6; test: Peak INa use-dependent block (UDB-10 Hz), automated patch clamp in HEK cells; assay type: cell-based; conditions: for activity dependent block of peak INa (in words): hNav1.6; for Peak INa UDB-10 Hz Hill slope: use-dependent block
# hNav1.6 = biological target: T2, hNav1.6 (Homo sapiens, UniProt Q9UQD0); test: Peak INa voltage-dependent block (VDB), automated patch clamp in HEK cells; assay type: cell-based
# T2 construct: expressed in transfected cells; host or cells: HEK cells
# [4] = test system: MES-induced seizures in male CD-1 mice; test: Maximal electroshock (MES) induced seizure test, Example 3; assay type: in vivo, mouse; conditions: dose response
# Protocol: The maximal electroshock (MES) test is a validated model for evaluating anti-seizure potential of compounds. […] The object of these studies was to evaluate the effect of Compound 1 (0.3, 1, 3 and 10 mg/kg p.o. (oral)) to attenuate MES-induced seizures in male CD-1 mice.
# (§1) Food and water were available ad libitum.
# Dosing solutions were prepared on each experiment day. […] VPA was prepared in saline (Vehicle 1). All solutions were protected from light. All compounds and vehicles were dosed at 10 ml/kg.
# The MES test was carried out over two days with half of the mice from each treatment group being tested on each day. Mice were brought to the test room at least one hour before the start of the experiment. […] Mice were randomly assigned into one of the six treatment groups.
# Animals were p.o. (oral) administered Compound 1 or 35% HPBCD (Vehicle 2) 30 minutes prior to the MES test or i.p. administered VPA or saline (Vehicle 1) 30 minutes prior to the MES test.
# A Grass S88× (Grass Technologies of Astro-Med, Inc., West Warwick, RI) Stimulus Isolation Unit (A385, WPI Inc., USA) was set to deliver a 50 mA square-wave stimulus, with a 0.8 second duration, a pulse width of 10 msec, and a frequency of 50 Hz. […] Each mouse was observed continuously by individuals blinded to treatment conditions and results were recorded. […]
# From these fitted curves, ED50 and EC50 values were calculated.
# [5] = test system: spontaneous locomotor activity in male CD-1 mice; test: Spontaneous locomotor activity (sLMA) test, Example 4; conditions: mouse, in vivo
# Protocol: The Spontaneous Locomotor Activity (sLMA) test is a validated model for evaluating the potential motor side effects of compounds. The objective of this study was to evaluate the effect of Compound 1 (3, 5.6, 10 and 20 […], p.o.) on spontaneous locomotor activity (sLMA) in male CD-1 mice at 30 minutes post-dose.
# as §1
# Dosing solutions were prepared on each experiment day. […] All solutions were protected from light. Samples from dosing solutions were stored at 4° C.
# The sLMA test was carried out over two days. Half of the mice from each treatment group was tested on each day.
# Animals were p.o. administered Compound 1 or 35% HPBCD (vehicle) 30 minutes prior to the sLMA test.
# All mice were anesthetized with CO2. […] The supernatant plasma was pipetted into Eppendorf tubes.
# [6] = test system: MES-induced tonic hindlimb extension in male CD-1 mice; test: MES acute seizure model, tonic hindlimb extension, Example 9; assay type: in vivo, mouse; conditions: for ED50: Mus musculus, read-out: ED50 value, protection from MES-induced tonic hindlimb extension
# Protocol: The maximal electroshock (MES) acute seizure model of generalized seizures is validated for evaluating the anticonvulsant potential of compounds. […] The objective of this study was to evaluate the effect of Compound 1 on maximal electroshock induced seizure in male CD-1 mice.
# Male CD-1 mice (Vital River, Beijing, China) approximately 6 weeks old were obtained for the study. Body weights were between 20.5 grams and 38.5 grams at the time the experiments were carried out. […] Food and water were available ad libitum.
# Treatment was conducted using Compound 1 and 35% 2-hydroxypropyl-β-cyclodextrin (35% HPBCD, used as a negative control). Compound 1 stock solution was prepared fresh each experiment day in 35% HPBCD and protected from light. The stock solution was diluted with vehicle for lower doses.
# Mice were brought to the test room at least one hour before the start of the experiment. Mice were administered valproate (VPA; 400 mg/kg, intraperitoneally); or vehicle (35% HPBCD, 10 mL/kg, intraperitoneally); or Compound 1 (0.3 mg/kg, 1 mg/kg, 3 mg/kg or 10 mg/kg, orally) 30 minutes prior to the MES test.
# The electroshock apparatus was set to deliver a 50 mA square-wave stimulus, with a 0.8 second duration, a pulse width of 10 milliseconds, and a frequency of 50 Hz. A pair of custom stainless-steel electrodes were soaked in 0.2% agar, and then the subject received bilateral transauricular stimulation through ear-clip electrodes. During the stimulation, mice were manually restrained then released immediately into an observation cage where they were monitored continuously for 60 seconds by an observer blinded to treatment group.
# Mice were anesthetized with CO2 and terminal plasma and brain tissue samples were collected. […] The supernatant plasma was pipetted into Eppendorf tubes.
# All statistical analyses were conducted using GraphPad Prism 9.3. Means were combined and standard error was calculated using the Satterthwaite Approximation to combine standard deviations. […] ED50 and EC50 values were calculated from these fit curves.
# [7] = test system: psychomotor seizures induced by 6-Hz electrical stimulation in CD-1 mice; test: 6-Hz psychomotor seizure model (32 and 44 mA); assay type: in vivo, mouse; conditions: 600 mg/kg intraperitoneally
# Excerpt: The 6-Hz test is a validated model of focal seizures for evaluating the anti-seizure potential of compounds. The 6-Hz seizure model can be performed at different stimulation intensities (32 or 44 mA), with the higher intensity (44 mA) used as a model of pharmacoresistant seizures. The positive control valproate is an approved anti-seizure medicine (ASM).
# This study evaluated the efficacy of Compound 1 in attenuating psychomotor seizures induced by 6-Hz electrical stimulation at two different stimulation intensities (32 and 44 mA) in wild-type CD-1 mice. Psychomotor seizures are defined as the expression of at least one of the following behaviors: stun/immobility, forelimb clonus, straub tail or lateral head movement within 30 seconds of the stimulus. Protection is defined as a complete absence of the above behaviors within 30 seconds of the stimulus. Doses of Compound 1 used were 1 mg/kg, 3 mg/kg and 6 mg/kg administered orally. Valproate (600 mg/kg, administered intraperitoneally) was used as a positive control.
# Male CD-1 mice (Charles River Laboratories; St. Constant, Quebec, CAN) were used for the study. Body weights at the time the experiment was carried out were 30-40 grams. The mice were group-housed in polycarbonate cages according to standard operating procedures. Animals were maintained on a 12-hour light/12 hour dark cycle, with all experimental activities occurring during the light phase. Food and water were available ad libitum. Mice acclimated to the test facility for at least 72 hours prior to testing.
# Treatment was conducted using Compound 1 and 35% 2-hydroxypropyl-β-cyclodextrin (35% HPBCD, used as a negative control). Compound 1 stock solution was prepared fresh each experiment day in 35% HPBCD. […] Valproate was prepared fresh each experiment day in a vehicle of saline and dosed at 10 mL/kg.
# Mice were administered vehicle (35% HPBCD), a single dose of Compound 1 (1 mg/kg, 3 mg/kg or 6 mg/kg) or valproate (600 mg/kg). Vehicle and Compound 1 were administered via oral gavage 30 minutes prior to […]. Valproate was administered as an intraperitoneal injection 60 minutes prior to the electrical stimulus.
# Immediately prior to conducting the 6-Hz seizure test, a brief neurological assessment was performed. Each animal was visually assessed and received a score from 0 to 3 according to the following scoring system: neurological score of 0 corresponds to a normal status; neurological score of 1 corresponds to a modest decrease in spontaneous activity; neurological score of 2 corresponds to a marked decrease in spontaneous activity; and neurological score of 3 corresponds to loss of righting reflex.
# Corneal electrodes moistened with saline (ECT unit 57800; Ugo Basile) were used to deliver the electrical stimulus (6-Hz, 0.2 millisecond pulse width, 3 seconds duration). The current delivered was either 32 mA or 44 mA. Immediately after the electrical stimulus, each mouse was monitored continuously for 30 seconds by an observer blinded to the treatment group. […] Mice were scored for the presence or absence of each seizure behavior, with a maximum total score of 4. […] At the end of the 6-Hz seizure test, plasma and brain samples were collected.
# Mice were anesthetized with isoflurane, whole blood was collected via cardiac puncture and brains were harvested. […] Plasma and brain samples were stored at −80° C. and analyzed to determine levels of Compound 1. […]
# [8] = 400 mg/kg intraperitoneally, listed as valproate
# T2 sequence (Q9UQD0 whole entry): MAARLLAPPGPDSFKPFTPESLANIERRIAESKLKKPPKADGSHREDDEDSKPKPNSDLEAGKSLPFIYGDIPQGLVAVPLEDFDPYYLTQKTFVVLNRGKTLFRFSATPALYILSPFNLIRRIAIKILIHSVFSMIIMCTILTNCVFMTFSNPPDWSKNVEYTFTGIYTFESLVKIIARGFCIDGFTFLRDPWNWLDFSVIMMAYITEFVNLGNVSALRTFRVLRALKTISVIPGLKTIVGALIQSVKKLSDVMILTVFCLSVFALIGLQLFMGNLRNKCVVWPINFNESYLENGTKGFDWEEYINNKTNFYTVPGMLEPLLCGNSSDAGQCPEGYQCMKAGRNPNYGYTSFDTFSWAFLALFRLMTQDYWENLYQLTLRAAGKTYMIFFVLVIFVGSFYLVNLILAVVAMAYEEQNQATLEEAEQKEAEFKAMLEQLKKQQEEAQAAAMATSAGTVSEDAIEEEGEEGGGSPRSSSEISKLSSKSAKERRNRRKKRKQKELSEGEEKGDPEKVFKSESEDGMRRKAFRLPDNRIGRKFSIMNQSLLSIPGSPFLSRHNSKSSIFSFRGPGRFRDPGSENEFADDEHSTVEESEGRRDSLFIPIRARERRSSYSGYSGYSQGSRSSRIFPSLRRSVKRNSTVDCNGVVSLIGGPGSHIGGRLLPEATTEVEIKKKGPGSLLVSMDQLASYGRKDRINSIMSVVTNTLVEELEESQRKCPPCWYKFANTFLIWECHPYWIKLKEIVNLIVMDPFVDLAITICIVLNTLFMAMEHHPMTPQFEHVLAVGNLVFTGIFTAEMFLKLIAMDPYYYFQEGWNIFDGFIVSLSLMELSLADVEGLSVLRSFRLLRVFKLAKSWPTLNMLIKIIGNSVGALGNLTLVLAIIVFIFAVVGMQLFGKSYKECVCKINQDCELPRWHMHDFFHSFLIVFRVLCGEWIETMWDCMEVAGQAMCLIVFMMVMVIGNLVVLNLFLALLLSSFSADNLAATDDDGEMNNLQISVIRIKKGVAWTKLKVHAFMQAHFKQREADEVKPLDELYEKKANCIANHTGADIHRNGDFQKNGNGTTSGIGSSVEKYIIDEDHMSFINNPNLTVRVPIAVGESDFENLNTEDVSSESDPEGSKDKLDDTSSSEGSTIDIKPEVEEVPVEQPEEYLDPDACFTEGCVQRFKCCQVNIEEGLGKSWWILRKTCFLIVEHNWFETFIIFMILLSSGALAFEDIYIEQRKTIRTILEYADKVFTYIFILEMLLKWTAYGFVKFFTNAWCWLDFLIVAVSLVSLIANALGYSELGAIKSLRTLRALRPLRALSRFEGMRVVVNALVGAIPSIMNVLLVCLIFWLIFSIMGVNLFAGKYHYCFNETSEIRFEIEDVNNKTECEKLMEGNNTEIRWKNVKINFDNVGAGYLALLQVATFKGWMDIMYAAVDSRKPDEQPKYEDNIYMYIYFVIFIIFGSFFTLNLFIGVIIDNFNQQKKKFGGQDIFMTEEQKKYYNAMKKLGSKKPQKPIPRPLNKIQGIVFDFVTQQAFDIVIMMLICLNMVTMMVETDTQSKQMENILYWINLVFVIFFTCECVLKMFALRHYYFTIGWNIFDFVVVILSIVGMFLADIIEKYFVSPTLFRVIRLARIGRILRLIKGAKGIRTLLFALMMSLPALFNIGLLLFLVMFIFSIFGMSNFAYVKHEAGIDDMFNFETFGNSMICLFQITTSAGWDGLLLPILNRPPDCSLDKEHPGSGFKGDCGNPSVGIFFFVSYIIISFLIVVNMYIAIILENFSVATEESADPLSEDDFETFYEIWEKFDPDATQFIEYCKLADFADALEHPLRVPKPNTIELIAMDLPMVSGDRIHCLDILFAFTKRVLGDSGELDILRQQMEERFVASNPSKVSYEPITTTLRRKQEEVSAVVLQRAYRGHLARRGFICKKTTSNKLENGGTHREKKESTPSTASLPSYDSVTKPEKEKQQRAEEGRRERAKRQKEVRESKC
# T1 sequence (Q9UQD0 whole entry): as above
smiles,measurement,setting,value
"NC(=O)N1c2ccccc2C=Cc2ccccc21 [Carbamazepine, carbamazepine]",persistent INa preference to TB,human Nav1.6 [1],30 ×
same,inhibition of and preference for persistent INa (in words),human Nav1.6 [1],lower potency and preference for persistent INa
same,Persistent INa Hill slope,human Nav1.6 [1],(1.1)
same,Peak INa TB Ratio to Pers. INa,human Nav1.6 [2],30
same,Peak INa UDB-10 Hz Ratio to Pers. INa,human Nav1.6 [3],18
same,UDB preference to TB,human Nav1.6 [3],no UDB observed
same,activity dependent block of peak INa (in words),human Nav1.6 [3],minimal activity dependent block of peak INa
same,Peak INa UDB-10 Hz Hill slope,human Nav1.6 [3],(0.9)
same,Peak INa VDB Hill slope,hNav1.6,(0.9)
same,Peak INa VDB Ratio to Pers. INa,hNav1.6,0.6
same,protection against MES-induced seizures (in words),[4],dose-dependent protection from MES-induced seizures
same,sLMA dose response (in words),[5],dose-dependent reductions in sLMA
same,ED50,[6]; male CD-1 mice,3.8 to 5.4 mg/kg
"NC(=O)O[C@@H](Cn1ncnn1)c1ccccc1Cl [Cenobamate, cenobamate]",persistent INa preference to TB,human Nav1.6 [1],24 ×
same,Persistent INa Hill slope,human Nav1.6 [1],(1.1)
same,Peak INa TB Ratio to Pers. INa,human Nav1.6 [2],24
same,Peak INa UDB-10 Hz Ratio to Pers. INa,human Nav1.6 [3],11
same,UDB preference to TB,human Nav1.6 [3],2.3 ×
same,Peak INa UDB-10 Hz Hill slope,human Nav1.6 [3],(0.7)
same,Peak INa VDB Hill slope,hNav1.6,(0.9)
same,Peak INa VDB Ratio to Pers. INa,hNav1.6,0.9
same,ED50,[6]; male CD-1 mice,3.8 to 5.4 mg/kg
same,"ED50 value, protection from MES-induced tonic hindlimb extension",[6]; male CD-1 mice,4.1 mg/kg
"COC[C@@H](NC(C)=O)C(=O)NCc1ccccc1 [Lacosamide, lacosamide]",Persistent INa Hill slope,human Nav1.6 [1],(0.9)
same,Peak INa UDB-10 Hz Ratio to Pers. INa,human Nav1.6 [3],0.8
same,Peak INa UDB-10 Hz Hill slope,human Nav1.6 [3],(1.3)
same,Peak INa VDB Hill slope,hNav1.6,(1.2)
same,Peak INa VDB Ratio to Pers. INa,hNav1.6,0.3
"Nc1nnc(-c2cccc(Cl)c2Cl)c(N)n1 [Lamotrigine, lamotrigine]",inhibition of and preference for persistent INa (in words),human Nav1.6 [1],lower potency and preference for persistent INa
same,Persistent INa Hill slope,human Nav1.6 [1],(1.0)
same,activity dependent block of peak INa (in words),human Nav1.6 [3],minimal activity dependent block of peak INa
same,Peak INa UDB-10 Hz Hill slope,human Nav1.6 [3],(1.0)
same,Peak INa VDB Hill slope,hNav1.6,(0.9)
same,protection against MES-induced seizures (in words),[4],dose-dependent protection from MES-induced seizures
same,sLMA dose response (in words),[5],dose-dependent reductions in sLMA
same,ED50,[6]; male CD-1 mice,3.8 to 5.4 mg/kg
"NC(=O)N1c2ccccc2CC(=O)c2ccccc21 [Oxcarbazepine, oxcarbazepine]",Persistent INa Hill slope,human Nav1.6 [1],(1.0)
same,Peak INa TB Ratio to Pers. INa,human Nav1.6 [2],8
same,Peak INa VDB Hill slope,hNav1.6,(1.1)
same,Peak INa VDB Ratio to Pers. INa,hNav1.6,0.3
"O=C1NC(=O)C(c2ccccc2)(c2ccccc2)N1 [Phenytoin, phenytoin]",Persistent INa Hill slope,human Nav1.6 [1],(0.8)
same,Peak INa UDB-10 Hz Ratio to Pers. INa,human Nav1.6 [3],15
same,Peak INa UDB-10 Hz Hill slope,human Nav1.6 [3],(0.6)
same,Peak INa VDB Hill slope,hNav1.6,(1.0)
same,Peak INa VDB Ratio to Pers. INa,hNav1.6,0.8
CCCC(CCC)C(=O)O [Valproic acid],sedation before MES test (in words),"[6]; 400 mg/kg intraperitoneally, listed as Valproate",mild to moderate sedation
same,protection against MES-induced hindlimb extension (in words),[6]; [8],all mice n=24 were seizure-free; also recorded: protected mice from MES-induced tonic hindlimb extension
same,sedation before MES test (in words),[6]; [8],nearly all valproate-treated mice showed mild to moderate sedation
same,average neurological score,[7],1.2
same,neurological scores / spontaneous activity,[7]; listed as valproate,modest to marked decrease in spontaneous activity
Cc1cc(N2CCc3cc(F)ccc3C2)cc(C)c1NC(=O)CC(C)(C)C [XEN1101],ED50,[6]; male CD-1 mice,3.8 to 5.4 mg/kg
